The text below walks through data of PubChem BioAssay AID588782 (Southern Research Specialized Biocontainment Screening …, 2011).

In the assay the test system is PC3 cells, HSV G47-delta CPE, CellTiter-Glo, 96 h. In words: augmentation of HSV G47-delta CPE in PC3 cells – cell-based, CellTiter-Glo, secondary, confirmation (AID 588782).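 As to CPE increase: percent rise in virus-caused cell damage over infected cultures given no drug.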 Particulars: for CC50: measured here: PC3 cytotoxicity.

Each structure is given as a SMILES string. Activity calls are given as the source filed them.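 The calls were made as follows: active = virus-caused cell damage raised over twofold versus untreated cells in three repeats, without toxicity at overlapping doses; inactive = the rest.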

As usually defined, the CC50 is the concentration at which the toxic effect on the cells reaches its halfway point. `COc1cc(C(=O)OCCCN2CCCN(Cc3ccccc3)CC2)cc(OC)c1OC` yielded a CC50 of over 100 µM. The outcome (at 10 µM) was inactive.

Turning to `COc1cc(C(=O)OCCCN2CCN(CCCOC(=O)c3cc(OC)c(OC)c(OC)c3)CC2)cc(OC)c1OC`, the CC50 was over 100 µM. In addition, the outcome (at 10 µM) was inactive.

`COc1ccc(C(=O)OCCCN2CCN(CCCOC(=O)c3ccc(OC)cc3)CC2)cc1` had a CC50 of over 100 µM. Also, the outcome (at 10 µM) was inactive.

`COc1cc(CN2CCCN(Cc3cc(OC)c(OC)c(OC)c3)CC2)cc(OC)c1OC`: the CC50 was over 100 µM. Besides, under “at 10 µM”, the outcome was inactive.

For the molecule `COc1ccc(C(=O)OCCCN2CCCN(C)CC2)cc1`, the CC50 was over 100 µM. Besides, under “at 10 µM”, the outcome was inactive.

Consider `COc1cc(C(=O)OCCCN2CCOCC2)cc(OC)c1OC`, for which the CC50 was over 100 µM. In addition, the result (at 10 µM) was inactive.

`COc1cc(OC)cc(C(=O)OCCN2CCCN(CCOC(=O)c3cc(OC)cc(OC)c3)CC2)c1` yielded a CC50 of over 100 µM. In addition, where the note is “at 10 µM”, the outcome was inactive.

The molecule `COc1ccc(C(=O)OCCN2CCCN(CCOC(=O)c3ccc(OC)cc3)CC2)cc1` showed a CC50 of over 100 µM. Further, for the setting “at 10 µM”, the result was inactive.

For the molecule `COc1ccc(C(=O)OCCN2CCCN(Cc3ccccc3)CC2)cc1`, the CC50 is over 100 µM. Under “at 10 µM”, the outcome was inactive.

`CNCCN(C)CCOC(=O)c1cc(OC)c(OC)c(OC)c1` registered a CC50 of over 100 µM. Also, the outcome (at 10 µM) was inactive.

`COc1cc(C(=O)OCCCN2CCCN(C(=O)c3ccccc3)CC2)cc(OC)c1OC` yielded a CC50 of over 100 µM. Moreover, under “at 10 µM”, the result was inactive.

The molecule `COc1cc(C(=O)OCCN2CCN(C)CC2)cc(OC)c1OC` gave a CC50 of over 100 µM. The outcome (at 10 µM) was inactive.

In turn, `O=C(OCCCN1CCN(CCCOC(=O)c2ccc(F)cc2)CC1)c1ccc(F)cc1` had a CC50 of over 100 µM. The outcome (at 10 µM) was inactive.

The molecule `COc1cc(C(=O)OCCCN2CCCC2)cc(OC)c1OC` displayed a CC50 of over 100 µM. The outcome (at 10 µM) was inactive.

The molecule `COc1cc(C(=O)OCCCN2CCCN(C(=O)OC(C)(C)C)CC2)cc(OC)c1OC` registered a CC50 of over 100 µM. Moreover, the result (at 10 µM) was inactive.

On to `O=C(OCCCN1CCN(CCCOC(=O)c2ccccc2)CC1)c1ccccc1`, for which the CC50 is over 100 µM. Besides, the result (at 10 µM) was inactive.

In turn, `O=C(CNc1ccc(F)cc1)CN1CCCN(CC(=O)Nc2ccc(F)cc2)CC1` returned a CC50 of over 100 µM. Also, the result (at 10 µM) was inactive.

In turn, `COc1cc(NC(=O)Nc2cc(OC)c(OC)c(OC)c2)cc(OC)c1OC` returned a CC50 of over 100 µM. Further, the result (at 10 µM) was inactive.

In turn, `COc1cc(C(=O)OCCN2CCCN(CCOC(=O)c3cc(OC)c(OC)c(OC)c3)CC2)cc(OC)c1OC` had a CC50 of over 100 µM. Moreover, the result (at 10 µM) was inactive.

With `CN1CCCN(CCCOC(=O)c2ccc(F)cc2)CC1`, the CC50 was over 100 µM. In addition, the result (at 10 µM) was inactive.

In turn, `COc1cc(OC)cc(C(=O)OCCCN2CCN(C)CC2)c1` returned a CC50 of over 100 µM. For the same molecule, the result (at 10 µM) was inactive.

Turning to `COc1cc(OC)cc(C(=O)OCCN2CCN(CCOC(=O)c3cc(OC)cc(OC)c3)CC2)c1`, the CC50 was over 100 µM. The result (at 10 µM) was inactive.

Regarding `COc1cc(OC)cc(C(=O)OCCN2CCCN(C)CC2)c1`, the CC50 was over 100 µM. For the same molecule, for the setting “at 10 µM”, the outcome was inactive.

In turn, `O=C(/C=C/c1ccc2c(c1)OCO2)N1CCCN(C(=O)/C=C/c2ccc3c(c2)OCO3)CC1` showed a CC50 of over 100 µM. The outcome (at 10 µM) was inactive.

For `COc1ccc(C(=O)OCCCN2CCCC2)cc1`, the CC50 is over 100 µM. The result (at 10 µM) was inactive.

`COc1cc(C(=O)OCCCN2CCCN(CCOC(=O)c3cc(OC)c(OC)c(OC)c3)CC2)cc(OC)c1OC` displayed a CC50 of over 100 µM. The result (at 10 µM) was inactive.

In the case of `COc1cc(OC)cc(C(=O)OCCCN2CCCN(Cc3ccccc3)CC2)c1`, the CC50 was over 100 µM. Moreover, the result (at 10 µM) was inactive.

`COc1cc(OC)cc(C(=O)OCCN2CCN(C)CC2)c1` showed a CC50 of over 100 µM. Besides, the outcome (at 10 µM) was inactive.

For `CN1CCN(CCCOC(=O)c2ccc(F)cc2)CC1`, the CC50 was over 100 µM. Also, the result (at 10 µM) was inactive.

For the molecule `COc1cc(OC)cc(C(=O)OCCCN2CCCN(C)CC2)c1`, the CC50 was over 100 µM. Further, the result (at 10 µM) was inactive.

In turn, `COc1cc(C(=O)OCCCN2CCCN(C)CC2)cc(OC)c1OC` gave a CC50 of over 100 µM. In addition, the outcome (at 10 µM) was inactive.

`COc1ccc(C(=O)OCCCN2CCN(C)CC2)cc1` came in with a CC50 of over 100 µM. The result (at 10 µM) was inactive.

As for `COc1cc(C(=O)OCCCN2CCCNCC2)cc(OC)c1OC`, the CC50 was over 100 µM. Besides, the outcome (at 10 µM) was inactive.

With `COc1cc(NC(=O)N2CCCN(C(=O)Nc3cc(OC)c(OC)c(OC)c3)CC2)cc(OC)c1OC`, the CC50 is over 100 µM. The CPE increase (at 10 µM, stronger effect = higher value) is 24.5% (inactive).

For the molecule `NCCCN1CCCN(CCCN)CC1`, the CC50 was over 100 µM. Besides, for the setting “at 10 µM”, the outcome was inactive.

For `CNCCN(C)CCOC(=O)c1cc(OC)cc(OC)c1`, the CC50 is over 100 µM. For the same molecule, where the note is “at 10 µM”, the outcome was inactive.

Take `COc1cc(OC)cc(C(=O)OCCN2CCCC2)c1`: the CC50 was over 100 µM. For the same molecule, where the note is “at 10 µM”, the outcome was inactive.

As for `COc1cc(-c2cn(CCCN3CCCN(CCCn4cc(-c5cc(OC)c(OC)c(OC)c5)nn4)CC3)nn2)cc(OC)c1OC`, the CC50 is over 100 µM. Moreover, under “at 10 µM”, the outcome was inactive.

In turn, `O=C(CCN1CCCN(CCC(=O)Nc2ccccc2)CC1)Nc1ccccc1` registered a CC50 of over 100 µM. The result (at 10 µM) was inactive.

Molecule `COc1cc(C(=O)OCCCN2CCCN(C(C)=O)CC2)cc(OC)c1OC` displayed a CC50 of over 100 µM. Besides, the result (at 10 µM) was inactive.

Molecule `COc1cc(OC)cc(C(=O)OCCCN2CCN(CCCOC(=O)c3cc(OC)cc(OC)c3)CC2)c1` displayed a CC50 of over 94 µM. Further, the result (at 10 µM) was inactive.

`O=C(OCCCN1CCOCC1)c1ccc(F)cc1` showed a CC50 of over 100 µM. The outcome (at 10 µM) was inactive.

In turn, `CC(=O)NCCCN1CCCN(CCCNC(C)=O)CC1` returned a CC50 of over 100 µM. Also, for the setting “at 10 µM”, the outcome was inactive.

As for `COc1ccc(C(=O)OCCCN2CCCN(CCCOC(=O)c3ccc(OC)cc3)CC2)cc1`, the cytotoxic concentration (CC50) was over 93 µM. The result (at 10 µM) was inactive.

`CNCCN(C)CCCOC(=O)c1ccc(OC)cc1` gave a 50% cytotoxic concentration (CC50) of over 100 µM. In addition, for the setting “at 10 µM”, the outcome was inactive.

`CNCCN(C)CCCOC(=O)c1ccc(F)cc1`: the CC50 was over 100 µM. Further, the outcome (at 10 µM) was inactive.

In the case of `COc1cc(C(=O)OCCN2CCN(CCOC(=O)c3cc(OC)c(OC)c(OC)c3)CC2)cc(OC)c1OC`, the CC50 was over 100 µM. For the same molecule, the outcome (at 10 µM) was inactive.
